Test results published in ChEMBL document CHEMBL2074090, “Characterization of the transport properties of cloned rat multidrug resistance-associated protein 3 (MRP3)” (J Biol Chem, 1999).

Key:
[1] = target: T1, MRP3 (ABCC3, ATP-binding cassette sub-family C member 3) (Rattus norvegicus, UniProt O88563); assay: TP_TRANSPORTER: inhibition of E217betaG uptake (E217betaG: 0.1 uM, alpha-naphthyl beta-D-glucuronide: 200 uM) in membrane vesicle from Mrp3-expressing LLC-PK1 cells; type: functional, cell membranes; design: scale not given: the % may be the effect or the level left; conditions: pig, membrane vesicles from Mrp3-expressing LLC-PK1 cells, probe E217betaG; read-out: Activity
[2] = target: T1, MRP3 (ABCC3, ATP-binding cassette sub-family C member 3); assay: TP_TRANSPORTER: inhibition of E217betaG uptake (E217betaG: 0.1 uM, DNP-SG: 500 uM) in membrane vesicles from MRP3-expressing LLC-PK1 cells; type: functional, cell membranes, Membrane vesicle; design: scale not given: the % may be the effect or the level left; conditions: pig, probe E217betaG, read-out: Activity
[3] = target: T1, MRP3 (ABCC3, ATP-binding cassette sub-family C member 3); assay: TP_TRANSPORTER: inhibition of E217betaG uptake (E217betaG: 0.1 uM, 4-methylumbeliferone glucuronide: 500 uM) in membrane vesicle from Mrp3-expressing LLC-PK1 cells; type: functional, cell membranes; design: scale not given: the % may be the effect or the level left; conditions: pig, membrane vesicles from Mrp3-expressing LLC-PK1 cells, probe E217betaG; read-out: Activity
[4] = target: ATP-binding cassette sub-family C member 3 (Rattus norvegicus, UniProt O88563); assay: (§1) TP_TRANSPORTER: uptake in membrane vesicle from Mrp3-expressing LLC-PK1 cells; type: functional, cell membranes; conditions: pig
[5] = target: T1, MRP3 (ABCC3, ATP-binding cassette sub-family C member 3); assay: TP_TRANSPORTER: inhibition of E217betaG uptake (E217betaG: 0.1 uM, E3040 glucuronide: 50 uM) in membrane vesicles from MRP3-expressing HeLa cells; type: functional, cell membranes, Membrane vesicle; design: scale not given: the % may be the effect or the level left; conditions: human, probe E217betaG, read-out: Activity
[6] = target: T1, MRP3 (ABCC3, ATP-binding cassette sub-family C member 3); assay: TP_TRANSPORTER: inhibition of E217betaG uptake (E217betaG: 0.1 uM, E1S: 500 uM) in membrane vesicle from Mrp3-expressing LLC-PK1 cells; type: functional, cell membranes; design: scale not given: the % may be the effect or the level left; conditions: pig, membrane vesicles from Mrp3-expressing LLC-PK1 cells, probe E217betaG; read-out: Activity
[7] = target: T1, MRP3 (ABCC3, ATP-binding cassette sub-family C member 3); assay: TP_TRANSPORTER: inhibition of E217betaG uptake (E217betaG: 0.1 uM, LTC4: 2.5 uM) in membrane vesicle from Mrp3-expressing LLC-PK1 cells; type: functional, cell membranes; design: scale not given: the % may be the effect or the level left; conditions: pig, membrane vesicles from Mrp3-expressing LLC-PK1 cells, probe E217betaG; read-out: Activity
[8] = target: T1, MRP3 (ABCC3, ATP-binding cassette sub-family C member 3); assay: TP_TRANSPORTER: inhibition of E217betaG uptake (E217betaG: 0.1 uM, MTX: 1000 uM) in membrane vesicles from MRP3-expressing HeLa cells; type: functional, cell membranes, Membrane vesicle; design: scale not given: the % may be the effect or the level left; conditions: human, probe E217betaG, read-out: Activity
[9] = target: T1, MRP3 (ABCC3, ATP-binding cassette sub-family C member 3); assay: TP_TRANSPORTER: inhibition of E217betaG uptake (E217betaG: 0.1 uM, MTX: 1000 uM) in membrane vesicles from MRP3-expressing LLC-PK1 cells; type: functional, cell membranes, Membrane vesicle; design: scale not given: the % may be the effect or the level left; conditions: pig, probe E217betaG, read-out: Activity
[10] = substrate: C[C@]12CC[C@@H]3c4ccc(O)cc4CC[C@H]3[C@@H]1CC[C@@H]2O[C@@H]1O[C@H](C(=O)O)[C@@H](O)[C@H](O)[C@H]1O; assay: as §1; type: functional, cell membranes

O=C(O)[C@H]1O[C@@H](Oc2cccc3ccccc23)[C@H](O)[C@@H](O)[C@@H]1O
activity at 200 µM [1]: 23.6%

N[C@@H](CCC(=O)N[C@H](CSc1ccc([N+](=O)[O-])cc1[N+](=O)[O-])C(=O)NCC(=O)O)C(=O)O
activity at 500 µM [2]: 14.4%

O=C(O)[C@H]1O[C@@H](OCc2cc(=O)oc3cc(O)ccc23)[C@H](O)[C@@H](O)[C@@H]1O
activity at 500 µM [3]: 14.1%

CNc1nc2c(Cc3cccnc3)c(C)c(O[C@@H]3O[C@H](C(=O)O)[C@@H](O)[C@H](O)[C@H]3O)c(C)c2s1 [E3040 GLUCURONIDE]
Activity [4]: substrate [+]
activity at 50 µM [5]: 11.1%

C[C@]12CC[C@@H]3c4ccc(OS(=O)(=O)O)cc4CC[C@H]3[C@@H]1CCC2=O [ESTRONE SULFURIC ACID]
activity at 500 µM [6]: 33.3%

CCCCC/C=C\C\C=C/C=C/C=C/[C@@H](SC[C@@H](NC(=O)CC[C@H](N)C(=O)O)C(=O)NCC(=O)O)[C@@H](O)CCCC(=O)O [LEUKOTRIEN C4]
activity at 2.5 µM [7]: 57%

CN(Cc1cnc2nc(N)nc(N)c2n1)c1ccc(C(=O)N[C@@H](CCC(=O)O)C(=O)O)cc1 [METHOTREXATE]
Activity [4]: substrate [+]
activity at 1000 µM [8]: 18.5%
activity at 1000 µM [9]: 10.7%

B1: ATP-binding cassette sub-family C member 3 (Rattus norvegicus) (protein)
chain: MDRLCGSGELGSKFWDSNLTVYTNTPDLTPCFQNSLLAWVPCIYLWAALPCYLFYLRHHRLGYIVLSCLSRLKTALGVLLWCISWVDLFYSFHGLVHGSSPAPVFFITPLLVGITMLLATLLIQYERLRGVRSSGVLIIFWLLCVICAIIPFRSKILLALAEGKILDPFRFTTFYIYFALVLCAFILSCFQEKPPLFSPENLDTNPCPEASAGFFSRLSFWWFTKLAILGYRRPLEDSDLWSLSEEDCSHKVVQRLLEAWQKQQTQASGPQTAALEPKIAGEDEVLLKARPKTKKPSFLRALVRTFTSSLLMGACFKLIQDLSPSSTHSCSASSSGLFRPHGPYWWGFLLAGLMFVSSTMQTLILHQHYHCIFVMALRIRTAIIGVIYRKALTITNSVKREYTVGEMVNLMSVDAQRFMDVSPFINLLWSAPLQVILAIYFLWQILGPSALAGVAVIVLLIPLNGAVSMKMKTYQVQQMKFKDSRIKLMSEILNGIKVLKLYAWEPTFLEQVEGIRQGELQLLRKGAYLQAISTFIWVCTPFMVTLITLGVYVCVDKNNVLDAEKAFVSLSLFNILKIPLNLLPQLISGMTQTSVSLKRIQDFLNQDELDPQCVERKTISPGRAITIHNGTFSWSKDLPPTLHSINIQIPKGALVAVVGPVGCGKSSLVSALLGEMEKLEGAVSVKGSVAYVPQQAWIQNCTLQENVLFGQPMNPKRYQQALETCALLADLDVLPGGDQTEIGEKGINLSGGQRQRVSLARAVYSDANIFLLDDPLSAVDSHVAKHIFDQVIGPEGVLAGKTRVLVTHGISFLPQTDFIIVLADGQITEMGHYSELLQHDGSFANFLRNYAPDENQEANEGVLQHANEEVLLLEDTLSTHTDLTDTEPAIYEVRKQFMREMSSLSSEGEGQNRPVLKRYTSSLEKEVPATQTKETGALIKEEIAETGNVKLSVYWDYAKSVGLCTTLFICLLYAGQNAVAIGANVWLSAWTNDVEEHGQQNNTSVRLGVYATLGILQGLLVMLSAFTMVVGAIQAARLLHTALLHNQIRAPQSFFDTTPSGRILNRFSKDIYVIHEVLAPTILMLFNSFYTSISTIVVIVASTPLFCVVVLPLAVFYGFVQRFYVATSRQLKRLESVSRSPIFSHFSETVTGTSVIRAYGRVQDFKVLSDAKVDSNQKTTYPYIASNRWLGVHVEFVGNCVVLFSALFAVIGRNSLNPGLVGLSVSYALQVTLSLNWMIRTLSDLESNIIAVERVKEYSKTETEAPWVLESNRAPEGWPRSGVVEFRNYSVRYRPGLELVLKNLTLHVQGGEKVGIVGRTGAGKSSMTLCLFRILEAAEGEIFIDGLNVAHIGLHDLRSQLTIIPQDPILFSGTLRMNLDPFGRYSDEDIWRTLELSHLSAFVSSQPTGLDFQCSEGGDNLSVGQRQLVCLARALLRKSRVLVLDEATAAIDLETDDLIQGTIRTQFEDCTVLTIAHRLNTIMDYNRVLVLDKGVVAEFDSPVNLIAAGGIFYGMAKDAGLA
Km [10]: 110 µM
